Patent US20260373135A1, “Methods of Treatment with Tradipitant” (Vanda Pharmaceuticals Inc., priority 2022, published 2026)

Legend:
CYP3A4 [1] = biological target: T1, CYP3A4 (Homo sapiens, UniProt P08684); assay: Co-administration of tradipitant with a CYP3A4 inhibitor; type: in vivo
Experimental: The method may further include administering tradipitant to the individual at a dose that is determined based upon whether or not a CYP3A4 inhibitor is co-administered with the tradipitant. In a case in which a CYP3A4 inhibitor is not being co-administered to the individual, the method includes administering tradipitant to the individual in a first amount, in a manner similar to the above-described case in which the individual has a CYP3A4 genotype associated with normal metabolism of tradipitant. However, in a case in which a CYP3A4 inhibitor is co-administered with tradipitant to the individual, then the method may include administering tradipitant to the individual in a second ament, where the second amount is smaller than the first amount, in a manner similar to the above-described case in which the individual has a CYP3A4 genotype that is associated with decreased metabolism of tradipitant relative to wildtype. In certain embodiments, the CYP3A4 inhibitor may be selected from amiodarone, aprepitant, cimetidine, ciprofloxacin, clarithromycin, diltiazem, erythromycin, fluconazole, grapefruit juice, itraconazole, ketoconazole, posaconazole, voriconazole, and verapamil. In particular embodiments, the CYP3A4 inhibitor may be considered a strong CYP3A4 inhibitor, and may be selected from: clarithromycin, itraconazole, ketoconazole, and posaconazole, or from ketoconazole and grapefruit juice.
As described above, in certain embodiments, the second, smaller amount of tradipitant may be about 60-90%, 60-85%, 60-80%, 60-75%, or 60-70% of the first amount; about 25-70%, 30-70%, 35-70%, 40-70%, 45-70%, 50-70%, 55-70%, or 60-70% of the first amount; about 35-95%, 40-90%, 50-80%, or 60-70% of the first amount; or about 66-68% of the first amount. The first amount is considered to be 100% of the amount that would be administered to an individual who is […] a CYP3A4 inhibitor with the tradipitant.
Therefore, the identification of an individual in need of treatment with tradipitant, who is or would be co-administered tradipitant and the CYP3A4 inhibitor, enables dosing with tradipitant in a manner that facilitates the desired exposure level of the patient to the parent compound and any active metabolites thereof. […]

CYP3A4 [2] = biological target: T1, CYP3A4; assay: Role of CYP3A4 genotype (CYP3A4*22) in metabolism/clearance of tradipitant, phase III study pharmacokinetics; type: in vivo
Experimental: To investigate the role of CYP3A4 genotypes in the metabolism of tradipitant, pharmacokinetics are analyzed in view of CYP3A4 genotype in a phase III study of humans dosed with tradipitant. In the investigation, all CYP3A4 alleles (as recognized by the Human Cytochrome P450 Allele Nomenclature Database) are reviewed. The analysis includes a linear model that is tested on various ratios of parent compound (tradipitant) or its metabolites, including: • Ratio A=Sum of (M2+M3+M4)/M8, and • Ratio B=(tradipitant)/(M3).
After correction for covariates, including principal components (PCs), age, sex, and body mass index (BMI), CYP3A4*22 is identified as a variant of interest, with a p-value of 1×10^−5. […] The effect of multiple alleles of interest is cumulative, as shown by the median ratios present in individuals having a CYP3A4 genotype of *22/*1, i.e. heterozygous for the *22 variant of interest (*22 het), compared with individuals having a CYP3A4 genotype of *22/*22+*3/*1 genotype, i.e., homozygous for the *22 variant of interest.
The graphs shown in FIGS. 2A-2H illustrate the plasma concentrations of tradipitant (FIG. 2A), metabolite M2 (FIG. 2B), metabolite M3 (FIG. 2C), metabolite M4 (FIG. 2D), metabolite M8 (FIG. 2E), ratio of tradipitant to M8 (FIG. 2F), ratio of all metabolites to M8 (i.e., (M2+M3+M4)/M8) (FIG. 2G), and ratio of tradipitant to M3 (FIG. 2H) in individuals in a study population. […] This reflects the reduced ability to clear tradipitant in individuals having a *22 allele.
The apparent clearance of tradipitant is plotted for individuals having a wild type (WT) genotype as compared to individuals having a heterozygous *22 (*22 het) genotype. The ratio of clearance (CL) in *22 het to WT is calculated as exp (median (HET)-median (WT)). Below these calculations, the P value is reported for a t test comparing the ETA values. […] Post hoc ETAs are the following: log (individual value for clearance/typical value for clearance), where “typical value” is essentially the median value. […]

NK-1 receptors = details: preclinical and clinical studies; cited from earlier work
[3] = Human metabolism of tradipitant in vitro and in vivo
Source text: Factors affecting metabolic clearance of tradipitant and its metabolites impact an individual's exposure to the parent compound, as well as any active metabolites.

[4] = co-administration with a CYP3A4 inhibitor

T1 sequence (P08684 whole entry): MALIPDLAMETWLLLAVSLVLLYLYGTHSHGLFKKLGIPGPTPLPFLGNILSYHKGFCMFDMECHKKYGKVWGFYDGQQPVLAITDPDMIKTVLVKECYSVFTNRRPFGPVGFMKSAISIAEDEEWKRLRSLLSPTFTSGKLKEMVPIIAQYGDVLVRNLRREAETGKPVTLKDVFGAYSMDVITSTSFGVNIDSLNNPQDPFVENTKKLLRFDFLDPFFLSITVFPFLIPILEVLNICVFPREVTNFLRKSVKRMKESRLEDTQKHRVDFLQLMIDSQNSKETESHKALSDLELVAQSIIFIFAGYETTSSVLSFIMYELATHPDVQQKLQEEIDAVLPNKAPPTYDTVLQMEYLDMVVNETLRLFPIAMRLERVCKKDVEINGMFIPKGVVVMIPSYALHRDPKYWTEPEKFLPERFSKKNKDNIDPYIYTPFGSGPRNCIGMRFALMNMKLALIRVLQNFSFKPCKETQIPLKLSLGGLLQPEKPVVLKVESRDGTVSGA

- exposure to tradipitant with CYP3A4 inhibitors (CYP3A4 [1]; co-administration with CYP3A4 inhibitors, particularly strong): increased exposure to tradipitant
- decrease in apparent clearance (CYP3A4 [1]; [4]): about 26.3%
- increase in AUC (CYP3A4 [1]; [4]): about 36%
- increase in Cmax (CYP3A4 [1]; [4]): about 26%
- reduction of tradipitant clearance in *22 heterozygotes (CYP3A4 [2]; CYP3A4*22 heterozygotes vs wild type): 34%
- median plasma concentration in *22 het vs wild type (CYP3A4 [2]; CYP3A4*22 heterozygous vs wild type (*1/*1), plasma, FIGS. 2A-2D): clearly greater median concentrations
Compound: O=C(c1ccccc1Cl)c1cccnc1-c1nnn(Cc2cc(C(F)(F)F)cc(C(F)(F)F)c2)c1-c1ccncc1 [tradipitant, {2-[1-(3,5-Bistrifluoromethylbenzyl)-5-pyridin-4-yl-1H-[1,2,3]triazol-4-yl]-pyridin-3-yl}-(2-chlorophenyl)-methanone]
- median ratio of tradipitant to M8 in *22 het vs wild type (CYP3A4 [2]; CYP3A4*22 heterozygous vs wild type, plasma, FIG. 2F): clearly greater median ratio of tradipitant to M8
- blockade of brain NK-1 receptors (NK-1 receptors): long-lasting blockade of brain NK-1 receptors
- human metabolic pathways [3]: ketone reduction (metabolites M2, M4), N-glucuronidation (metabolite M8), pyridine N-oxidation (metabolites M3, M4), and glucuronidation (metabolite M8)
